From publication PMC11765572 (International Journal of Molecular Sciences, 2025)
Where two headings read alike, the source gives them in different places.

How the values were obtained:
in vitro = conditions: African green monkey
[1] = system: SARS-CoV-2 (BetaCov/Belgium/GHB-03021/2020 B.1 lineage A); test: microbe, parasite or virus in culture; conditions: Severe acute respiratory syndrome coronavirus 2, 96 h, mean ± SD of two independent replicates
SARS-CoV-2 M^pro = biological target: T1, SARS-CoV-2 M^pro (Severe acute respiratory syndrome coronavirus 2, UniProt P0DTD1); test: biochemical; conditions: FRET; for IC50: substrate Dabcyl-[…]-Edans, mean ± SD of three independent measurements; for inhibition at 1 µM: single concentration of 1 μM, read-out: inhibition rate
T1 construct: main protease (M^pro, also known as Nsp5 and 3C-like protease); purchased Beyotime P0312S

VeroE6-eGFP cells = conditions: from a previous report, measured under identical conditions; cited from earlier work
[2] = system: SARS-CoV-2 (BetaCov/Belgium/GHB-03021/2020 B.1 lineage A); conditions: VeroE6-eGFP cells; from a previous report, measured under identical conditions; cited from earlier work
SARS-CoV-2 delta strains = system: SARS-CoV-2 delta strains; set-up: method as in PMID 39072488; conditions: delta strain, Vero E6 cells, viral copy numbers in supernatant by qRT-PCR; cited from earlier work
[3] = system: SARS-CoV-2 (BetaCov/Belgium/GHB-03021/2020 B.1 lineage A); conditions: […]; mean ± SD of two independent replicates

SMILES | CC50 at 5 days (in vitro) [nM] | EC50 [1] [nM] | IC50 (SARS-CoV-2 M^pro) [nM] | inhibition at 1 µM (SARS-CoV-2 M^pro) [%] | CC50 (VeroE6-eGFP cells) [nM] | EC50 [2] [nM] | EC50 (SARS-CoV-2 delta strains) [nM] | EC50 [3]
CNC(=O)c1cc(Br)cc([N+](=O)[O-])c1N[C@@H]1CCCC[C@@H]1NC(=O)c1cccnc1 [Compound A5, N-((1S,2R)-2-((4-bromo-2-(methylcarbamoyl)-6-nitrophenyl)amino)cyclohexyl)nicotinamide] | > 100000 | 2010 to 6050 | 1050 ± 67 | 53.7 | – | – | – | –
CC(C)(C)[C@H](NC(=O)C(F)(F)F)C(=O)N1C[C@H]2[C@@H]([C@H]1C(=O)N[C@H](C#N)C[C@@H]1CCNC1=O)C2(C)C [Nirmatrelvir] | – | – | – | – | > 100000 | 123 ± 34 | – | –
CNC(=O)c1cc(Br)cc([N+](=O)[O-])c1N[C@@H]1CCCC[C@@H]1NC(=O)c1cc(=O)[nH]c2ccccc12 [Compound A9, N-((1S,2R)-2-((4-bromo-2-(methylcarbamoyl)-6-nitrophenyl)amino)cyclohexyl)-2-oxo-1,2-dihydroquinoline-4-carboxamide] | > 100000 | 180 ± 20 | 154 ± 6 | 92 | – | – | 849 | micromolar or submicromolar range
CNC(=O)c1cc(Br)cc([N+](=O)[O-])c1N[C@@H]1CCCC[C@@H]1NC(=O)c1cncc(O)c1 [Compound A6, N-((1S,2R)-2-((4-bromo-2-(methylcarbamoyl)-6-nitrophenyl)amino)cyclohexyl)-5-hydroxynicotinamide] | > 100000 | – | 1080 ± 23 | 55.5 | – | – | – | –
